Values of other authors as cited in US20090281186A1, “Composition and Method for Reducing Stress” (priority 2008, published 2009).

Tests used:
[1] = sixteen individuals; acute administration; 200 mg of L-theanine or 1 mg of alprazolam vs placebo
[2] = test system: dopamine release from the corpus straitum; serotonin levels in the hippocampus and thalamus; conditions: rats, L-theanine administration
[3] = 21 patients; 12 grams of inositol per day for four weeks; compared to placebo
[4] = inositol compared with fluvoxamine

| Structure (SMILES) | effect on subjects during the experimental relaxed state [1] | acute stress responses (psychological and physiological measures) (oral administration, 200 mg of L-theanine) | perception of stress (psychological measures) (twelve individuals, 200 mg of L-theanine before or midway through the task vs placebo) | heart rates during the stress task (twelve individuals, 200 mg of L-theanine vs placebo) | dopamine release from the corpus straitum [2] | serotonin levels in the hippocampus and thalamus [2] | severity and frequency of panic attacks [3] | effectiveness in treating panic disorders [4] |
| --- | --- | --- | --- | --- | --- | --- | --- | --- |
| CCNC(=O)CCC(N)C(=O)O [L-theanine, 2-amino-4-(ethylcarbamoyl)butyric acid] | caused a tranquil state | acute stress responses were reduced | greater increase in the perception of stress in the placebo condition compared to the other conditions | heart rates were higher in the placebo condition compared to the L-theanine groups | increase dopamine release | increase serotonin levels |  |  |
| Cc1nnc2n1-c1ccc(Cl)cc1C(c1ccccc1)=NC2 [alprazolam, reference compound] | had no effect |  |  |  |  |  |  |  |
| O[C@H]1[C@H](O)[C@@H](O)[C@H](O)[C@@H](O)[C@H]1O [inositol, cis-1,2,3,5-trans-4,6-cyclohexanehexol] |  |  |  |  |  |  | significantly decreased | equally effective |
